Results: article PMC10291553, “Exploring Structure–Activity Relationships in Photodynamic Therapy Anticancer Agents Based on Ir(III)-COUPY Conjugates” (Journal of Medicinal Chemistry, 2023)
“And” between values parts separate entries of the source, which are not always exact repeats. Identical values can stand only once. Like-named read-outs stand apart in the source and are kept apart here.

Columns and labels:
[1] = tested on: A375; test: Photo- and cytotoxic activity determination (MTT), A375 cells; format: cell-based, human; conditions: normoxia; for A375 PI (phototherapeutic index), IC50 dark/IC50 irradiated: 520 nm, dark tested up to 100 μM; for IC50: 48 h drug-free medium
Text: (§1) Having shown that the Ir(III)-COUPY conjugates can sensitize both type I and II ROS through spectroscopic techniques and readily internalize into living cells, their photocytotoxicity was screened in various cancer cell lines. This screening included two representative melanoma cell lines (human A375 and […] human SK-MEL-28) and cancer cells with resistance to the clinical drug cisplatin. For the latter, both sensitive and cisplatin-resistant ovarian cancer cells (A2780 and A2780cis) as well as HeLa cells, which also show a degree of chemoresistance to the platinum anticancer drug in vitro,[54] were used. For the determination of dark and light cytotoxicity, dose–response curves were assayed from both conditions to provide the correspondent IC50 values, which correspond to the concentration needed for inhibition of cell growth by 50%. Phototherapeutic index (PI) was calculated as the ratio of dark to light IC50 value for each compound.
(§2) A375, HeLa, and SK-MEL-28 cells were cultured in Dulbecco’s modified Eagle medium (DMEM) supplemented with 10% FBS, L-glutamine, and 1% penicillin–streptomycin. A2780 and A2780cis cells were grown in RPMI-1640 cell medium supplemented with 10% fetal bovine serum (FBS) and 2 mM L-glutamine. Acquired resistance to cisplatin in the A2780cis cell line was maintained by adding cisplatin 1 μM to culture medium every second passage. Cells were cultured in a humidified incubator at 310 K with 5% CO2 atmosphere and subcultured two or three times a week with appropriate densities and were confirmed to be mycoplasma-free using a standard Hoechst DNA staining method.
(§3) A2780, A2780cis, HeLa, A375, and SK-MEL-28 cells were maintained at logarithmic growth-phase and cultured in 96-well plates at a density of 5000 cells/well in complete medium for 24 h at 310 K, 5% CO2 in a humidified incubator. For hypoxia experiments, a hypoxia condition was set up by Tissue Culture Service at University of Murcia using nitrogen (N2) to displace O2 down to a minimum of 2% in a Forma Steri-Cycle i160 incubator (Thermo Fisher Scientific). Serial dilutions of the compounds were added at the final concentrations in the range of 0–100 μM in a final volume of 100 μL per well. A light-based treatment schedule was performed as follows: 1 h incubation with the compounds in the dark, followed by 1 h incubation under irradiation conditions by placing the Photoreactor EXPO-LED from Luzchem (Canada) fitted with green lamps (final light intensity applied of 1.5 mW/cm^2 at λmax = 520 nm) inside the CO2 incubator. All the cell culture plates subjected to light irradiation included untreated controls to verify that cell viability was not affected by light. Then, treatment-containing media was removed, and fresh media was added for a 48 h cell recovery period; the temperature throughout the experiment remained at 310 K. Dark control samples were placed in the same dark conditions and then kept incubated for 1 h in the dark in the humidified CO2 incubator. Medium was then aspirated by suction, cells were loaded with 50 μL of MTT solution (1 mg/mL) for additional 4 h and then removed, and 50 μL of DMSO was added to solubilize the purple formazan crystals formed in active cells. The absorbance was measured at 570 nm using a microplate reader (FLUOstar Omega), and the IC50 values were calculated based on the inhibitory rate curves using the following equation [drawing 4] 4 where I represents the percentage inhibition of viability observed, Imax is the maximal inhibitory effect, IC50 is the concentration that inhibits 50% of maximal growth, C is the concentration of the treatment, and n is the slope of the semi-logarithmic dose–response sigmoidal curves. The non-linear fitting was performed using SigmaPlot 14.0 software. All experiments were performed in three independent studies with n = 3 replicates per concentration level. For a detailed phototoxicity procedure, ref ([43]) includes technical explanations.

[2] = tested on: HeLa; test: Photo- and cytotoxic activity determination (MTT), HeLa cells; format: cell-based; conditions: normoxia; for HeLa PI (phototherapeutic index), IC50 dark/IC50 irradiated: 520 nm, dark tested up to 100 μM; for IC50: 48 h drug-free medium
Text: as §1, §2, §3

[3] = tested on: A2780; test: Photo- and cytotoxic activity determination (MTT), A2780 cells; format: cell-based; conditions: normoxia; for A2780 PI (phototherapeutic index), IC50 dark/IC50 irradiated: 520 nm, dark tested up to 100 μM; for IC50: 48 h drug-free medium
Text: as §1, §2, §3

[4] = tested on: A2780cis cells; test: Photo- and cytotoxic activity determination (MTT), A2780cis cells, normoxia or hypoxia; format: cell-based; conditions: for Partial inhibition (% of cell growth inhibition with respect to untreated controls), Hypoxia / Partial inhibition (% of cell growth inhibition with respect to untreated controls), Normoxia: 250 μM, 2 h incubation in the dark, 48 h drug-free recovery; for PI (phototherapeutic index), blue light: 465 nm; for Hypoxia PI (phototherapeutic index) / Normoxia PI (phototherapeutic index): dark tested up to 250 μM; for A2780cis PI (phototherapeutic index), IC50 dark/IC50 irradiated: dark tested up to 100 μM
Text: as §1, §2
as §3, with “Serial dilutions of the compounds were added at the final concentrations in the range of 0–100 μM in a final volume of 100 μL per well.” left out

[5] = 1 h incubation + 1 h green light 520 nm, 1.5 mW cm^–2, read-out: A375 light IC50
[6] = kept in the dark, 2 h treatment, read-out: A375 dark IC50
[7] = 1 h incubation + 1 h green light 520 nm, 1.5 mW cm^–2, read-out: HeLa light IC50
[8] = kept in the dark, 2 h treatment, read-out: HeLa dark IC50
[9] = 1 h incubation + 1 h green light 520 nm, 1.5 mW cm^–2, read-out: A2780 light IC50
[10] = kept in the dark, 2 h treatment, read-out: A2780 dark IC50
[11] = A2780cis, 1 h incubation + 1 h blue light 465 nm, 5 mW/cm2, 48 h drug-free, read-out: 465 nm IC50
[12] = A2780cis, hypoxia 2% O2, 520 nm
[13] = A2780cis, hypoxia 2% O2, dark, tested up to 250 μM, read-out: Hypoxia Dark IC50
[14] = A2780cis, normoxia 21% O2, 520 nm
[15] = A2780cis, normoxia 21% O2, dark, tested up to 250 μM, read-out: Normoxia Dark IC50
[16] = hypoxia, 520 nm, read-out: A2780cis Light 520 nm IC50 (microM) Hypoxia
[17] = hypoxia, dark, read-out: A2780cis Dark IC50 (microM) Hypoxia
[18] = normoxia, 1 h incubation + 1 h green light 520 nm, 1.5 mW cm^–2, 48 h drug-free medium, read-out: A2780cis light IC50
[19] = normoxia, dark, up to 250 microM, read-out: A2780cis Dark IC50 (microM) Normoxia
[20] = normoxia, kept in the dark, tested up to 100 μM, 2 h treatment, 48 h drug-free medium, read-out: A2780cis dark IC50

SMILES	A375 PI (phototherapeutic index), IC50 dark/IC50 irradiated [1]	IC50 [1, 5] [µM]	IC50 [1, 6] [µM]	HeLa PI (phototherapeutic index), IC50 dark/IC50 irradiated [2]	IC50 [2, 7] [µM]	IC50 [2, 8] [µM]	A2780 PI (phototherapeutic index), IC50 dark/IC50 irradiated [3]	IC50 [3, 9] [µM]	IC50 [3, 10] [µM]	Partial inhibition (% of cell growth inhibition with respect to untreated controls), Hypoxia ([4]; A2780cis, hypoxia) [%]	Partial inhibition (% of cell growth inhibition with respect to untreated controls), Normoxia ([4]; A2780cis, normoxia) [%]	Hypoxia PI (phototherapeutic index) [4, 12]	IC50 [4, 13] [µM]	Normoxia PI (phototherapeutic index) [4, 14]	IC50 [4, 15] [µM]	IC50 [4, 17] [µM]	A2780cis PI (phototherapeutic index), IC50 dark/IC50 irradiated ([4]; normoxia, 520 nm)	IC50 [4, 18] [µM]	IC50 [4, 19] [µM]	IC50 [4, 20] [µM]	further results
CCCCn1c2[n+](c3cc(C(=O)NCCCNC(=O)C[n+]4ccc(/C(C#N)=C5/C=C(C)c6ccc(N(CC)CC)cc6O5)cc4)ccc31)[Ir-3]13([c]4ccccc4-c4[nH]c5ccccc5[n+]41)([c]1ccccc1-c1[nH]c4ccccc4[n+]13)[n+]1c-2ccc2ccccc21 [3a]	> 6	18 ± 3	> 100	> 12	8.6 ± 0.7	> 100	> 94	1.07 ± 0.07	> 100	49 ± 4	58 ± 7	> 65.8 and > 66	> 250	> 357.1 and > 357	> 250	> 250	> 143	0.7 ± 0.06	> 250	> 100	PI (phototherapeutic index), blue light ([4]; A2780cis): > 52.6; IC50 [4, 11]: 1.9 µM; IC50 [4, 16]: 3.8 ± 0.3 µM
CCCCn1c2[n+](c3cc(C(=O)NCCCNC(=O)C[n+]4ccc(/C(C#N)=C5/C=C(C)c6ccccc6O5)cc4)ccc31)[Ir-3]13([c]4ccccc4-c4[nH]c5ccccc5[n+]41)([c]1ccccc1-c1[nH]c4ccccc4[n+]13)[n+]1c-2ccc2ccccc21 [3b]	> 1.3	78 ± 6	> 100	> 6	18 ± 2	> 100	> 14	7.1 ± 0.1	> 100	45 ± 6	63 ± 5	> 8.1	> 250	> 4.1	> 250	> 250	> 1.6	61 ± 8	> 250	> 100	PI (phototherapeutic index), blue light ([4]; A2780cis): > 41.7; IC50 [4, 11]: 2.4 µM; IC50 ([4]; A2780cis, hypoxia 2% O2, 1 h incubation + 1 h green light 520 nm, 48 h drug-free, read-out: Hypoxia 520 nm IC50): 31 µM
CCCCn1c2[n+](c3cc(C(=O)NCCCNC(=O)C[n+]4ccc(/C(C#N)=C5/C=C(C)c6cc7c8c(c6O5)CCCN8CCC7)cc4)ccc31)[Ir-3]13([c]4ccccc4-c4[nH]c5ccccc5[n+]41)([c]1ccccc1-c1[nH]c4ccccc4[n+]13)[n+]1c-2ccc2ccccc21 [3c]	> 3	38 ± 5	> 100	> 2.2	45 ± 4	> 100	> 48	2.1 ± 0.2	> 100	61 ± 8	74 ± 10	> 31.3 and > 31	> 250	> 240.4 and > 240	> 250	> 250	> 96	1.04 ± 0.02	> 250	> 100	IC50 [4, 16]: 8 ± 1 µM
